Read-outs that look alike come from different tables or passages of the source. Values belong to the molecule of their own block, whether it stands above or below them. Where a SMILES comes first, the peptide text is derived from it. Where no end group is shown, it is not given here. [ ]: non-standard residue; d: D form. pY = N[C@@H](Cc1ccc(OP(=O)(O)O)cc1)C(=O)O
Columns and labels:
[1] = LC-TOF/MS detection of CbR-derived peptides in serum and skeletal muscle of mice fed CbR; assay type: in vivo, Jcl:ICR mice; conditions: serum of mice fed CbR diet for 14 days
Method: (§1) Oligopeptides were separated at 40 °C using a linear gradient of 0.1% formic acid (FA) in MS grade water (solvent A) and 0.1% FA in acetonitrile (ACN) (solvent B) for 20 min at a flow rate of 0.2 mL/min, and an Agilent 1200 series HPLC system (Agilent Technologies Inc., Santa Clara, CA, USA) equipped with a Cosmosil 5C18-MS-II column (Φ 2.0 mm × 150 mm, Nacalai Tesque Inc., Kyoto, Japan). The MS conditions comprised: drying gas, N2; flow rate, 8.0 L/min; drying gas temperature, 200 °C; drying gas pressure, 1.6 bar; HV capillary voltage, −4500 V; capillary exit, 70.0 V; skimmer 1, 50.0 V; hexapole 1, 23.0 V; hexapole RF, 100.0 Vpp; skimmer 2, 23.0 V; lens 1 transfer, 52.0 μs, and mass range m/z 100–1000. A calibration solution of 10 mM sodium formate in 50% ACN was injected at the beginning of each run. Data were analyzed using Bruker Data Analysis version 3.2 software (Bruker, Billerica, MA, USA). Calibration curves were prepared using 0.1–10 μM standards.
31 Supplementary Figure 2. Analysis of serum collected from mice fed with Non-Tg or CbR using
33 Mice were handled as described in Methods. Briefly, 6-week-old male Jcl:ICR mice (Japan SLC
34 Inc., Shizuoka, Japan) were housed with access to a standard diet and water ad libitum. […]
42 specific for CbR group. ND, not detected. […]
60 analyzed by LC-TOF/MS under conditions described in Methods. […]
61 those of possible metabolites. […] ND, not detected.

[2] = test system: CBLB; parameters: method as in 2 sources, ref 9 = [9]; PMID 26874193; doi:10.1016/j.abb.2016.02.014; 9. Ohno A Structural analysis of the TKB domain of ubiquitin ligase Cbl-b complexed with its small inhibitory peptide, Cblin Arch. Biochem. Biophys. 2016 594 1 7 10.1016/j.abb.2016.02.014 26874193 ||| ref 19 = [19]; PMID 23762056; doi:10.1155/2013/907565; 19. Abe T Soy glycinin contains a functional inhibitory sequence against muscle-atrophy-associated ubiquitin ligase Cbl-b Int. J. Endocrinol. 2013 2013 907565 907565 23762056 10.1155/2013/907565 PMC36; conditions: cited from earlier work
Source text: The amino acid sequence of Cblin pentapeptide was designed to inhibit interaction between CBLB and IRS1 proteins based on the ability of CBLB to recognize and bind to phosphorylated tyrosine. […] We previously elucidated the crystal structure of the TKB domain of CBLB complexed with C ...

[3] = test system: Caco-2 cells; assay: Peptidase degradation and dephosphorylation during Caco-2 transport (fragment screening by LC-TOF/MS); assay type: in vitro ADME; conditions: for Resistance to peptidase degradation in Caco-2 cells: 1 mM peptide, 60 min, fragments screened by m/z, no other peptide fragments found (data not shown)
Method: Cell culture and transport experiment were performed as described[24],[45]. Caco-2 cells were cultured using BD BioCoat Intestinal Epithelium Differentiation Environment kits (BD Bioscience, Franklin Lakes, NJ, USA). Caco-2 cells grown in 0.9 cm^2 Falcon cell culture inserts (polyethylene terephthalate membranes; pore size, 1.0 μm; Becton Dickinson and Co.) with a type I collagen-coated membrane (Cellmatrix type IA Collagen Gel Culturing Kit; Nitta Gelatin Inc., Osaka, Japan) were gently rinsed twice with Hanks balanced salt solution (HBSS; 137 mM NaCl, 5 mM KCl, 5.5 mM D-glucose, 4 mM NaHCO3, 0.75 mM NaHPO4·12H2O, 0.4 mM KH2PO4, 0.8 mM MgSO4·7H2O, and 1.26 mM CaCl2·2H2O, pH 6.0 adjusted with 10 mM 2-(N-morpholino)-ethanesulfonic acid). A portion (1.5 mL) of HBSS buffer (pH 6.0) was added to the apical side, and HBSS buffer (pH 7.4 adjusted with 10 mM N-2-hydroxyethylpiperazine-N′-2-ethanesulfonic acid) was added to the basolateral side. […] Monolayer integrity was evaluated by measuring TEER using a Millicell® ERS-2 Voltohmmeter (Merck KGaA, Darmstadt, Germany), and monolayers with a TEER of >300 Ω · cm^2 were included in the experiments. The apparent permeability coefficient (Papp, cm/s) was calculated as1 Pappcm/s=V/AC0×dC/dt where dC/dt is the change in concentration on the basolateral side over time (mM/s), V is the volume of solution in the basolateral compartment (1.5 mL), A is the surface area of the membrane (0.9 cm^2), and C0 is the initial concentration on the apical side (mM).
Oligopeptides were separated at 40 °C using a linear gradient of 0.1% formic acid (FA) in MS grade water (solvent A) and 0.1% FA in acetonitrile (ACN) (solvent B) for 20 min at a flow rate of 0.2 mL/min, and an Agilent 1200 series HPLC system (Agilent Technologies Inc., Santa Clara, CA, USA) equipped with a Cosmosil 5C18-MS-II column (Φ 2.0 mm × 150 mm, Nacalai Tesque Inc., Kyoto, Japan). […] Data were analyzed using Bruker Data Analysis version 3.2 software (Bruker, Billerica, MA, USA). […]

[4] = Plasma pharmacokinetics after a single oral dose in rats; assay type: in vivo, Sprague-Dawley rats
[5] = Transport of Cblin pentapeptides across Caco-2 cell monolayers (apparent permeability); assay type: in vitro ADME; conditions: human; Caco-2 (C2BBe1) monolayers, apical to basolateral, apical HBSS pH 6.0 / basolateral HBSS pH 7.4, 1 mM peptide, 0.5% DMSO, 60 min, 37 °C, TEER >300 Ω·cm2, LC–TOF/MS, means ± SEM (n = 4–6)
Method: (§2) Cell culture and transport experiment were performed as described[24],[45]. Caco-2 cells were cultured using BD BioCoat Intestinal Epithelium Differentiation Environment kits (BD Bioscience, Franklin Lakes, NJ, USA). Caco-2 cells grown in 0.9 cm^2 Falcon cell culture inserts (polyethylene terephthalate membranes; pore size, 1.0 μm; Becton Dickinson and Co.) with a type I collagen-coated membrane (Cellmatrix type IA Collagen Gel Culturing Kit; Nitta Gelatin Inc., Osaka, Japan) were gently rinsed twice with Hanks balanced salt solution (HBSS; 137 mM NaCl, 5 mM KCl, 5.5 mM D-glucose, 4 mM NaHCO3, 0.75 mM NaHPO4·12H2O, 0.4 mM KH2PO4, 0.8 mM MgSO4·7H2O, and 1.26 mM CaCl2·2H2O, pH 6.0 adjusted with 10 mM 2-(N-morpholino)-ethanesulfonic acid). A portion (1.5 mL) of HBSS buffer (pH 6.0) was added to the apical side, and HBSS buffer (pH 7.4 adjusted with 10 mM N-2-hydroxyethylpiperazine-N′-2-ethanesulfonic acid) was added to the basolateral side. After equilibration for 15 min at 37 °C, the apical buffer was replaced with fresh HBSS (pH 6.0) containing 1 mM peptide and 0.5% DMSO. Portions (60 μL) of solutions were drawn from the apical or basolateral sides at 15, 30, 45, and 60 min to determine amounts of transported peptides. Monolayer integrity was evaluated by measuring TEER using a Millicell® ERS-2 Voltohmmeter (Merck KGaA, Darmstadt, Germany), and monolayers with a TEER of >300 Ω · cm^2 were included in the experiments. The apparent permeability coefficient (Papp, cm/s) was calculated as1 Pappcm/s=V/AC0×dC/dt where dC/dt is the change in concentration on the basolateral side over time (mM/s), V is the volume of solution in the basolateral compartment (1.5 mL), A is the surface area of the membrane (0.9 cm^2), and C0 is the initial concentration on the apical side (mM).
(§3) We investigated the involvement of PEPT1 in peptide transport by competition studies using 10 mM Gly-Sar, a PEPT1 substrate. We also investigated peptide transport over paracellular tight junctions by incubating monolayers with the tight junction opener, cytochalasin D (0.5 μg/mL) for 30 min[47] before evaluating transport.
as §1

[6] = test system: Caco-2 cell monolayers; assay: as above; assay type: in vitro ADME; conditions: LC–TOF/MS, n = 4–6; for Effect of Gly-Sar (PEPT1 substrate) on Papp: Caco-2, 1 mM peptide with 10 mM Gly-Sar, 60 min; for Papp in monolayers incubated with cytochalasin D vs untreated membranes: Caco-2, 1 mM peptide, pre-incubation with cytochalasin D 0.5 μg/mL for 30 min, transport 60 min
Method: as §2, §3, §1

[7] = test system: Caco-2 cell monolayers; conditions: cited from earlier work
Method: Basolateral solutions were sampled every 15 min for 60 min and analyzed by LC–TOF/MS. […] Therefo ...

[8] = rat, single p.o. 50 mg/kg BW, n = 1
[9] = rat, single p.o. 200 mg/kg BW, n = 1

Uptake of intact heptapeptide into serum [1]: undetectable
Molecule: CSCC[C@H](NC(=O)[C@H](Cc1ccc(O)cc1)NC(=O)CNC(=O)[C@H](CC(=O)O)NC(=O)[C@@H](N)CCC(N)=O)C(=O)N1CCC[C@H]1C(=O)N[C@@H](Cc1c[nH]c2ccccc12)C(=O)O [Gln-Asp-Gly-Tyr-Met-Pro-Trp] (H-QDGYMPW-OH)

Molecule: Asp-Ile-Tyr-Asn-Pro [modified Cblin peptide (Cblin-like peptide from soy glycinin) with non-phosphorylated tyrosine]
Effect on CBLB-mediated IRS1 ubiquitination [2]: suppresses

Resistance to peptidase degradation in Caco-2 cells [3]: resistant to peptidase degradation | half-life ([4]; male, Sprague-Dawley, plasma, po, rat, p.o. 100 mg/kg BW, elimination half-life, n = 5): 28 min | tmax ([4]; male, Sprague-Dawley, plasma, po, rat, p.o. 100 mg/kg BW, n = 5, read-out: tmax (converted)): 15 min | Metabolites found in rat plasma ([4]; p.o. 100 mg/kg BW, plasma 30 min after administration, screened by m/z): Gly-Tyr-Met-Pro and Met-Pro | Cmax ([4]; rat, p.o. 100 mg/kg BW, fasted 16 h, LC–TOF/MS with isotope-labelled internal standard, means ± SEM (n = 5)): 2.78 ± 0.17 pmol/mL plasma | AUC0–60 min [4, 8]: 14.61 pmol ∙ min/mL plasma | Cmax [4, 8]: 0.79 pmol/mL plasma | t1/2 [4, 8]: 8.99 min | tmax [4, 8]: 10 min | AUC0–60 min [4, 9]: 648.91 pmol ∙ min/mL plasma | Cmax [4, 9]: 27.25 pmol/mL plasma | t1/2 [4, 9]: 5.58 min | tmax [4, 9]: 30 min | Papp A→B at 60 min, 1 mM [5]: 0.7 ± 0.08 ×10⁻⁶ cm/s | Effect of Gly-Sar (PEPT1 substrate) on Papp [6]: not affected | Papp in monolayers incubated with cytochalasin D vs untreated membranes [6]: significantly higher
Molecule: CSCC[C@H](NC(=O)[C@H](Cc1ccc(O)cc1)NC(=O)CNC(=O)[C@@H](N)CC(=O)O)C(=O)N1CCC[C@H]1C(=O)O [Asp-Gly-Tyr-Met-Pro] (H-DGYMP-OH)

Molecule: CSCC[C@H](NC(=O)[C@H](Cc1ccc(OP(=O)(O)O)cc1)NC(=O)CNC(=O)[C@@H](N)CC(=O)O)C(=O)N1CCC[C@H]1C(=O)O [Asp-Gly-pTyr-Met-Pro] (H-DG[pY]MP-OH)
Resistance to peptidase degradation in Caco-2 cells [3]: resistant to peptidase degradation | Dephosphorylation during Caco-2 transport ([3]; basolateral solution after 60 min, Asp-Gly-Tyr-Met-Pro found at an estimated concentration similar to the intact peptide): dephosphorylated | Papp A→B at 60 min, 1 mM [5]: 0.35 ± 0.12 ×10⁻⁶ cm/s | Effect of Gly-Sar (PEPT1 substrate) on Papp [6]: not affected | Papp in monolayers incubated with cytochalasin D vs untreated membranes [6]: significantly higher

Molecule: Gly-Sar-Sar-Sar-Sar [pentapeptide transport model with methylated peptide bonds]
Papp [7]: 8.6 ± 0.6^a,* ×10^−7 cm/s | Papp, as given in text [7]: 8.6 ×10^−7 cm/s

Molecule: Gly-[pY]-Met
Effect on CBLB-mediated ubiquitination of IRS1 ([2]; in vitro): suppressive effect

Reference: publication PMC8429733, “Oral intake of rice overexpressing ubiquitin ligase inhibitory pentapeptide prevents atrophy in denervated skeletal muscle” (NPJ Science of Food, 2021)
